# Data as given in patent EP0329225A2, “Acetylenic esters” (MERCK & CO. INC., priority 1988, dated 1989).
# Where two headings read alike, the source gives them in different places.
# Biological target: T1, Acetoacetyl-coenzyme A thiolase (Rattus norvegicus, UniProt Q5XI22)
# T1 construct: prepared from the livers of Sprague Dawley rats treated in the diet for one week with 0.075% lovastatin to induce the enzyme; from tissue; host or cells: liver of Sprague Dawley rats fed lovastatin
# Assay: Acetoacetyl-coenzyme A thiolase inhibition (coupled spectrophotometric assay, NADH oxidation at 340 nm)
# Type: biochemical, Sprague Dawley rats
# Protocol: Acetoacetyl-coenzyme A thiolase was prepared from the livers of Sprague Dawley rats treated in the diet for one week with 0.075% lovastatin to induce the enzyme. Acetoacetyl-coenzyme A thiolase was purified through the DEAE-cellulose step essentially as described by Mehrabian et al., J. Biol. Chem., 261, 16249-16255 (1986), but modified slightly by carrying out the 30-50% ammonium sulfate precipitation of the enzyme and a dialysis before the DEAE-cellulose step. The 0.06 M eluate described by Mahrabian et al. contained the acetoacetyl-coenzyme A thiolase. The isolate was concentrated by ammonium sulfate precipitation, dissolved in the buffer used for elution, and stored at -70°C.
# Inhibition of acetoacetyl coenzyme A thiolase was measured by coupling the formation of acetoacetyl-coenzyme A to its subsequent reduction of β-hydroxybutyryl-coenzyme A dehydrogenase to β-hydroxybutyryl-coenzyme A and monitoring the resultant oxidation of NADH with a spectrophotometer set at 340 nm. Mixtures of 0.016 units of β-hydroxybutyryl-coenzyme A dehydrogenase, 16.2 µg of acetoacetyl coenzyme A thiolase, and test quantities of the test compounds dissolved in dimethyl sulfoxide and water to bring to final volume were incubated with 71.4 mM Tris-HCl (pH 7.5). 0.71 mM EDTA, 10.7 mM magnesium chloride, 0.53 mM dithiothreitol, 0.21 mM NADH (total volume of 0.140 ml) until a stable base line was obtained. Reaction was initiated by addition of 10 µl of acetoacetyl-coenzyme A, giving a concentration of 2.85 mM. Reaction was measured at room temperature for a time period necessary to produce a measurable reaction rate. An IC₅₀, the concentration that inhibits 50% of the acetoacetyl-coenzyme A thiolase activity, was determined for each test compound. The IC₅₀'s for representative compounds of this invention are listed in Table I. The IC₅₀ of 5-(1-hydroxy-2,4,6-heptatriynyl)-2-oxo-1,3-dioxolane-4-heptanoic acid has been reported as 1 x 10⁻⁸ M. See U.S. Patent Application Serial No. 07/053,973, filed May 26, 1987.
# [1] = enzyme from livers of lovastatin-treated rats, room temperature, pH 7.5, read-out: IC₅₀
# T1 sequence (Q5XI22 whole entry): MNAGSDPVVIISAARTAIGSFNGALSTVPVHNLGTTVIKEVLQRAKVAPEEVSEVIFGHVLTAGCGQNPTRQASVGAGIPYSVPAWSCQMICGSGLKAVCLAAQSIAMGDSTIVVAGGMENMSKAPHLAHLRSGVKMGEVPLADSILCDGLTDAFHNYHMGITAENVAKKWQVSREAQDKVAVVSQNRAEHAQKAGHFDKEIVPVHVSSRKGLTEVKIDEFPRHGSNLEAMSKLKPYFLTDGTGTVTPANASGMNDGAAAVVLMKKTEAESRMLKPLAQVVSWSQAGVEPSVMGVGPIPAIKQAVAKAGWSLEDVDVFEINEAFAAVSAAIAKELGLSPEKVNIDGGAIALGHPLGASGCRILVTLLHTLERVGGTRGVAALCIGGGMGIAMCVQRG
structure (smiles),measurement,setting,value
"C#CC#CC#C[C@@H](O)[C@@H](O)[C@@H](O)CCCCCCC(=O)O [Ex. 1, 8(S),9(S),10(R)-Trihydroxy-11,13,15-hexadecatriynoic acid]",IC50,[1],0.15 µM
"C#CC#CC#C[C@@H](O)[C@@H](O)[C@@H](O)CCCCCCC(=O)OC [Ex. 2, 8(S),9(S),10(R)-Trihydroxy-11,13,15-hexadecatriynoic acid, methyl ester]",IC50,[1],38 µM
"COC(=O)CCCCCCCCC(O)C#CC#CC#C[Si](C)(C)C (stereo not drawn) [Ex. 3, 10-Hydroxy-16-(trimethylsilyl)-11,13,15-hexadecatriynoic acid, methyl ester]",IC50,,0.017 µM
"C#CC#CC#CC(O)CCCCCCCCC(=O)OC (stereo not drawn) [Ex. 4, 10-Hydroxy-11,13,15-hexadecatriynoic acid, methyl ester]",IC50,[1],0.024 µM
"COC(=O)CCCCCCCCC(O)C#CC#C[Si](C)(C)C (stereo not drawn) [Ex. 5, 10-Hydroxy-14-(trimethylsilyl)-11,13-tetradecadiynoic acid, methyl ester]",IC50,,> 62 µM
"C#CC#CC(O)CCCCCCCCC(=O)OC (stereo not drawn) [Ex. 6, 10-Hydroxy-11,13-tetradecadiynoic acid, methyl ester]",IC50,[1],26 µM
